Source: patent US11208433B2, “Peptide for inhibiting skin inflammation and composition for preventing or treating skin inflammation containing the same” (AVIXGEN Inc., priority 2017, dated 2021)

Legend:
ZO-1 (tight junction) = assay: Recovery of ZO-1 broken by VEGF in HUVEC (confocal immunofluorescence); assay type: cell-based, Human; conditions: peptide pretreatment 30 minutes, VEGF 20 ng/ml 1 hour, FIGS. 18 and 19
Description: (§1) HUVECs were starved with M199 media supplemented with 1% FBS for 4 hours, inoculated on a 24-well plate containing glass at the number of 1×10^5 cells, and cultured for 24 hours to attach the cells to the glass. HUVECs were pretreated with the acetylated tetrapeptide and the non-acetylated tetrapeptide (—Ac) for 30 minutes and treated with VEGF at a concentration of 20 ng/ml for 1 hour. Thereafter, the cells were washed three times with PBS, fixed in 3.7% formaldehyde for 20 minutes, and treated with PBS containing 0.2% Triton X-100 to increase […] permeability. After blocking with 3% BSA for 1 hour, they were reacted with VE-cadherin (adherens junction) and ZO-1 (tight junction) antibodies at room temperature for 2 hours and washed three times with PBS. They were treated with Cy3 secondary antibodies, reacted at room temperature for 1 hour, washed twice with PBS, and stained with DAPI for 10 minutes. The huvec-attached glass was removed and mounted on a sliding glass.

[1] = tested on: atopic mouse skin tissues; assay: Immunohistochemical staining of atopic mouse skin tissue (angiogenic marker, inflammatory cells, keratin); assay type: in vivo, NC/Nga mouse
Description: (§2) After the ear auricle of the NC/Nga mouse was shaved with a razor, the epilating agent was applied in an appropriate amount for the complete depilation. After the epilating agent was wiped off, Then, 100 mg of the AD-inducing reagent shown in Table 2 as below was uniformly applied to the ear auricle using a micropipette tip, thereby inducing atopic dermatitis for the first time.
(§3) After shaving with a razor for necessary, 150 μL of a 4% SDS aqueous solution was uniformly applied to the ear auricle using a micropipette, dried with a cold air using a dryer, and air-dried for about 2 to 3 hours. Then, 100 mg of the same AD-inducing reagent was uniformly applied to the ear auricle using a micropipette tip, thereby inducing atopic dermatitis after 2 times. All treatments were carried out twice a week to be 6 times for a total of 3 weeks, thereby producing atopic dermatitis animal model.
(§4) The mice of groups 2 to 5 were obtained by the atopic dermatitis animal model prepared in Experimental Method 3 as described above.
(§5) The experimental substance and the control substance were uniformly applied to the ear auricle using a micropipette tip. From the day of the experimental substance administration (Day 0) to the day of the autopsy (Day 14), they were administered once a day for 2 weeks.
Atopy mouse skin tissues were immersed in Xylene three times for 5 minutes, 100% ethanol for 2 minutes, 95% ethanol for 2 minutes, 90% ethanol for 2 minutes, 70% ethanol for 2 minutes and D.W. for 2 minutes to remove paraffin and to perform hydration. After washing with PBS, they were treated with 0.2% Triton X-100 to increase cell permeability. After re-washing with PBS, they were reacted with blocking solution, 3% bovine serum albumin, for 1 hour. For inflammatory cells and keratin staining, they were reacted with F4/80 (sc-377009, Santa Cruz) and cytokeratin (NB600-579, NOVUSBIO) antibodies, respectively, at room temperature for 2 hours. After washing with PBS, they were treated with Texas Red (ab6787, Abcam) secondary antibody and reacted at room temperature for 60 minutes. The mounting solution was dropped on the tissue of the slide. Then, the tissue was covered with a cover slide, and the sample was observed under a fluorescence microscope. For analysis of the degree of angiogenesis, the atopic skin tissue was reacted with FITC-conjugated isolectin B4 (L2895, Sigma), a blood vessel marker at room temperature for 2 hours. The mounting solution was dropped on the tissue of the slide. Then, the tissue was covered with a cover slide, and the sample was observed under a fluorescence microscope
The mouse skin tissues stained with the respective markers were photographed using a fluorescence microscope (DMil, Leica, Germany), and fluorescence intensities were quantitatively analyzed using an ImageJ program (NIH, Bethesda, Md., USA).

IgE = assay: ELISA analysis of serum IgE in atopic dermatitis animal model; conditions: day of autopsy (Day 14)
[2] = tested on: atopic dermatitis animal model; assay: Ear thickness measurement in atopic dermatitis animal model; assay type: in vivo, NC/Nga mouse; conditions: FIG. 2; for ear thickness compared with induced control group (group 2): 7th and 14th day after administration, tetrapeptide 0.622, ACP-tetrapeptide 4.987, prednisolone 50 μg/ear once a day, p<0.001 or p<0.01
Description: (§6) After the ear auricle of the NC/Nga mouse was shaved with a razor, the epilating agent was applied in an appropriate amount for the complete depilation. After the epilating agent was wiped off, Then, 100 mg of the AD-inducing reagent shown in Table 2 as below was uniformly applied to the ear auricle using a micropipette tip, thereby inducing atopic dermatitis for the first time. After shaving with a razor for necessary, 150 μL of a 4% SDS aqueous solution was uniformly applied to the ear auricle using a micropipette, dried with a cold air using a dryer, and air-dried for about 2 to 3 hours. Then, 100 mg of the same AD-inducing reagent was uniformly applied to the ear auricle using a micropipette tip, thereby inducing atopic dermatitis after 2 times. All treatments were carried out twice a week to be 6 times for a total of 3 weeks, thereby producing atopic dermatitis animal model. The mice of groups 2 to 5 were obtained by the atopic dermatitis animal model prepared in Experimental Method 3 as described above. The experimental substance and the control substance were uniformly applied to the ear auricle using a micropipette tip. From the day of the experimental substance administration (Day 0) to the day of the autopsy (Day 14), they were administered once a day for 2 weeks. Ear thickness was measured for each individual by calipers, and the ear area was photographed. Ear thickness measurement and photographing were performed once a week on the day of starting the experimental substance administration and thereafter.

[3] = tested on: VE-cadherin (adherens junction); assay: Recovery of VE-cadherin broken by VEGF in HUVEC (confocal immunofluorescence); assay type: cell-based, Human; conditions: peptide pretreatment 30 minutes, VEGF 20 ng/ml 1 hour, FIGS. 16 and 17
Description: as §1

histamine = assay: ELISA analysis of serum histamine in atopic dermatitis animal model; assay type: in vivo, NC/Nga mouse; conditions: day of autopsy (Day 14)
Description: as §2, §3, §4, §5
On the day of the autopsy, blood samples were collected from the abdominal vein using a syringe. The serum isolated from the blood was analyzed for IgE and histamine using an ELISA kit.

[4] = tested on: atopic dermatitis animal model; assay: Histopathological examination of ear epidermis and dermis (H&E scoring); assay type: in vivo, NC/Nga mouse; conditions: infiltration by inflammatory cells, p<0.05, FIGS. 8 and 9; for epidermis score level compared with group 2: hypertrophy, hyperkeratosis
Description: After the ear auricle of the NC/Nga mouse was shaved with a razor, the epilating agent was applied in an appropriate amount for the complete depilation. After the epilating agent was wiped off, Then, 100 mg of the AD-inducing reagent shown in Table 2 as below was uniformly applied to the ear auricle using a micropipette tip, thereby inducing atopic dermatitis for the first time. After shaving with a razor for necessary, 150 μL of a 4% SDS aqueous solution was uniformly applied to the ear auricle using a micropipette, dried with a cold air using a dryer, and air-dried for about 2 to 3 hours. Then, 100 mg of the same AD-inducing reagent was uniformly applied to the ear auricle using a micropipette tip, thereby inducing atopic dermatitis after 2 times. All treatments were carried out twice a week to be 6 times for a total of 3 weeks, thereby producing atopic dermatitis animal model. The mice of groups 2 to 5 were obtained by the atopic dermatitis animal model prepared in Experimental Method 3 as described above. The experimental substance and the control substance were uniformly applied to the ear auricle using a micropipette tip. From the day of the experimental substance administration (Day 0) to the day of the autopsy (Day 14), they were administered once a day for 2 weeks. On the day of the autopsy, ears were removed for the histopathological examination and fixed in 10% neutral buffered formalin solution. The fixed tissues were subject to the general tissue treatment such as reprofiling, dehydration, paraffin embedding, and dissection, thereby preparing specimens for histopathological examination. Then, hematoxylin and eosin (H & E) and TUNEL assays were performed on histopathologic specimens, and the light microscopy (Olympus BX53, Japan) was used to observe histopathologic changes. In the histopathologic evaluation using hematoxylin and eosin staining slides, in order to compare the degree of the lesion with the induced control group, the most severe lesion was selected, and then the hypertrophy, hyperkeratosis and infiltration by inflammatory cells were evaluated in the epidermis. In the dermis, the infiltration by inflammatory cells was evaluated. Scoring criteria are the same as 0 (no symptoms), 1 (mild), 2 (moderate), and 3 (severe) (Taniguchi Y et al 2003).

[5] = tested on: atopic dermatitis animal model; assay: Visual pathological evaluation (skin clinical index) in atopic dermatitis animal model; assay type: in vivo, NC/Nga mouse; conditions: 14th day after administration; p<0.05; FIG. 6
Description: as §6, with “[…] For each individual, 0 (none), 1 (mild), 2 (moderate) and 3 (severe)” for “From the day of the experimental substance administration (Day 0) to the day of the autopsy (Day 14), they”, “recorded” for “administered once a day”, “erythema/hemorrhage, edema, excoriation/erosion” for “2 weeks. Ear thickness was measured for each individual by calipers,”, “scaling/dryness. […]” for “the ear area was photographed. Ear thickness measurement and photographing were performed once a week on the day of starting the experimental substance administration and thereafter.”

Row | Compound | damage level of ZO-1 caused by VEGF (ZO-1 (tight junction)) | angiogenesis (Isolectin B4 staining) ([1]; atopic mouse skin tissue, also similar to prednisolone treated group, FIG. 10) | inflammatory cell inflow (F4/80 staining) ([1]; atopic mouse skin tissue, also similar to prednisolone treated group, FIG. 11) | keratinization and fibrosis (cytokeratin staining) ([1]; atopic mouse skin tissue, also similar to prednisolone treated group, FIG. 12) | anti-atopic effect compared with prednisolone ([1]; treatment amount having a molar ratio lower than 1000 times that of prednisolone, FIG. 13) | IgE level compared with prednisolone treated group (IgE; FIG. 7) | IgE level compared with group 2 (induced control) (IgE; p<0.001 or p<0.01, FIG. 7) | IgE level compared with normal control group (IgE; p<0.001 or p<0.01, FIG. 7) | ear thickness compared with induced control group (group 2) [2] | ear thickness compared with normal control group (group 1) ([2]; 14th day after administration, p<0.001) | damage level of VE-cad caused by VEGF [3] | histamine level compared with prednisolone treated group (histamine; FIG. 7) | histamine level compared with group 2 (induced control) (histamine; p<0.001 or p<0.01, FIG. 7) | epidermis score level compared with group 2 [4] | dermis score level compared with group 2 [4] | scaling/dryness level compared with group 2 [5]
1 | RLYE [Tetrapeptide] | recovered to a level similar to that of the control group without VEGF treatment | lower than that of the inducted control group | lower than that of the inducted control group | lower than that of the inducted control group | superiority to prednisolone | lower than that of the prednisolone treated group | significantly lower | significantly higher | significantly thinner | significantly thicker | recovered to a level similar to that of the control group without VEGF treatment | lower than that of the prednisolone treated group | significantly lower | significantly lower | significantly lower | –
2 | C[C@]12C=CC(=O)C=C1CC[C@@H]1[C@@H]2[C@@H](O)C[C@@]2(C)[C@H]1CC[C@]2(O)C(=O)CO [Prednisolone, prednisolone, reference compound] | – | – | – | – | – | – | significantly lower | – | significantly thinner | – | – | – | – | significantly lower | significantly lower | significantly lower
3 | Tetrapeptide (—Ac): non-acetylated tetrapeptides (RLYE) | recovered to a level similar to that of the control group without VEGF treatment | – | – | – | – | – | – | – | – | – | recovered to a level similar to that of the control group without VEGF treatment | – | – | – | – | –
